Experimental data published in patent publication US5563155A, “Individual stereosiomers of 7-[3-(aminoalkyl)-1-pyrrolidinyl]-quinolones and naphthyridones as antibacterial agents” (Warner-Lambert Company, priority 1995, dated 1996).
In brackets after ≈: the same amount, converted by molar mass. Where two headings read alike, the source gives them in different places.

Experiments:
Ent. cloacae MA2646 = test: in vitro antibacterial activity, microtitration dilution (MIC), Ent. cloacae MA2646; format: cell-based; conditions: Enterobacter cloacae, read-out: minimum inhibiting concentration (MIC)
Method in brief: (§1)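 MICs (μg/mL) determined by microtitration broth dilution following the Heifetz et al. method.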

Esch. coli Vogel [1] = test: in vitro antibacterial activity, microtitration dilution (MIC), Esch. coli Vogel; format: cell-based; conditions: Escherichia coli, read-out: minimum inhibiting concentration (MIC)
Method in brief: as §1

Klebs. pneumoniae MGH-2 = test: in vitro antibacterial activity, microtitration dilution (MIC), Klebs. pneumoniae MGH-2; format: cell-based; conditions: Klebsiella pneumoniae, MGH2, read-out: minimum inhibiting concentration (MIC)
Method in brief: as §1

Prot. rettgeri M 1771 = test: in vitro antibacterial activity, microtitration dilution (MIC), Prot. rettgeri M 1771; format: cell-based; conditions: Providencia rettgeri, M1771, read-out: minimum inhibiting concentration (MIC)
Method in brief: as §1

Pseud. aeruginosa UI-18 = test: in vitro antibacterial activity, microtitration dilution (MIC), Pseud. aeruginosa UI-18; format: cell-based; conditions: Pseudomonas aeruginosa, UI18, read-out: minimum inhibiting concentration (MIC)
Method in brief: as §1

Staph. aureus H 228 = test: in vitro antibacterial activity, microtitration dilution (MIC), Staph. aureus H 228; format: cell-based; conditions: Staphylococcus aureus, H228, read-out: minimum inhibiting concentration (MIC)
Method in brief: as §1

Staph. aureus UC-76 = test: in vitro antibacterial activity, microtitration dilution (MIC), Staph. aureus UC-76; format: cell-based; conditions: Staphylococcus aureus, UC76, read-out: minimum inhibiting concentration (MIC)
Method in brief: as §1

Strep. faecalis MGH-2 = test: in vitro antibacterial activity, microtitration dilution (MIC), Strep. faecalis MGH-2; format: cell-based; conditions: Enterococcus faecalis, MGH2, read-out: minimum inhibiting concentration (MIC)
Method in brief: as §1

Strep. pheumoniae SV-1 [2] = test: in vitro antibacterial activity, microtitration dilution (MIC), Strep. pneumoniae SV-1; format: cell-based; conditions: Streptococcus pneumoniae, SV1, read-out: minimum inhibiting concentration (MIC)
Method in brief: as §1

Strep. pyogenes C-203 [3] = test: in vitro antibacterial activity, microtitration dilution (MIC), Strep. pyogenes C-203; format: cell-based; conditions: Streptococcus pyogenes, C203, read-out: minimum inhibiting concentration (MIC)
Method in brief: as §1

Esch. coli Vogel [4] = test: median protective dose in mice given lethal systemic infections, Esch. coli Vogel; format: in vivo; conditions: Escherichia coli, single dose at time of challenge, read-out: median protective dose (PD50)
Experimental: (§2) The in vivo activity is obtained when the compounds are tested according to the procedure of Miller, et al (Proc. Soc. Exp. Biol. Med. 57, 261, 1944). The median protective dose (PD50) was determined in mice given lethal systemic infections. Single doses of compound were given at time of challenge.
(§3) By use of the above methods, the following minimum inhibiting concentration values (MICs in μg/mL), PD50 's in mg/kg, no effect phototoxicity dose in mg/kg and the cytotoxicity IC50 in μg/mL were obtained for representative enantiomers of the invention and compounds of the prior art as shown in the table.
(§4) The in vivo data as PD50 s are reported below the line of MICs for the same compound.

Strep. pheumoniae SV-1 [5] = test: median protective dose in mice given lethal systemic infections, Strep. pneumoniae SV-1; format: in vivo; conditions: Streptococcus pneumoniae, single dose at time of challenge, read-out: median protective dose (PD50)
Experimental: as §2, §3, §4

[6] = cytotoxicity, hamster V-79 cells, colony reduction; format: cell-based; conditions: 3 hours treatment, colonies counted after 5 days, read-out: Cytotox (cytotoxicity IC50)
Experimental: The cytotoxicity data is obtained using hamster V-79 cells. The cells were suspended in tissue culture medium and grown overnight. Cells were treated with drug for 3 hours, washed free of drug and then replated, and the colonies counted after 5 days. The concentration of drug that reduced colones by 50% relative to control was recorded.
as §3

Strep. pyogenes C-203 [7] = test: median protective dose in mice given lethal systemic infections, Strep. pyogenes C-203; format: in vivo; conditions: Streptococcus pyogenes, single dose at time of challenge, read-out: median protective dose (PD50)
Experimental: as §2, §3, §4

in vivo = test: in vivo; design: species or system mice; conditions: mouse, po
Experimental: The phototoxicity data is obtained using depilated mice. The compound was administered orally each day for four successive days, followed each day by 3 hours of UVA radiation. The mice were examined for any positive signs (redness, erythema) relative to control animals. The no effect dose and the 50% effect dose were determined. By use of the above methods, the following minimum inhibiting concentration values (MICs in μg/mL), PD50 's in mg/kg, no effect phototoxicity dose in mg/kg and the cytotoxicity IC50 in μg/mL were obtained for representative enantiomers of the invention and compounds of the prior art as shown in the table.

Row | Structure (SMILES) | MIC (Ent. cloacae MA2646) [µg/mL] | MIC (Esch. coli Vogel [1]) [µg/mL] | MIC (Klebs. pneumoniae MGH-2) [µg/mL] | MIC (Prot. rettgeri M 1771) [µg/mL] | MIC (Pseud. aeruginosa UI-18) [µg/mL] | MIC (Staph. aureus H 228) [µg/mL] | MIC (Staph. aureus UC-76) [µg/mL] | MIC (Strep. faecalis MGH-2) [µg/mL] | MIC (Strep. pheumoniae SV-1 [2]) [µg/mL] | MIC (Strep. pyogenes C-203 [3]) [µg/mL] | ED50 (Esch. coli Vogel [4]; PO) [mg/kg] | ED50 (Esch. coli Vogel [4]; SC) [mg/kg] | ED50 (Strep. pheumoniae SV-1 [5]; SV1, PO) [mg/kg] | ED50 (Strep. pheumoniae SV-1 [5]; SV1, SC) [mg/kg] | CC50 at 3 h [6] [µg/mL] | ED50 (Strep. pyogenes C-203 [7]; C203, PO) [mg/kg] | ED50 (Strep. pyogenes C-203 [7]; C203, SC) [mg/kg] | NOAEL at 96 h (in vivo) [mg/kg]
1 | C[C@@H](N)[C@@H]1CCN(c2cc3c(cc2F)c(=O)c(C(=O)O)cn3C2CC2)C1 [Example 4, 3R,1R-1-cyclopropyl-6-fluoro-7-[3-(1-aminoethyl)-1-pyrrolidinyl]-1,4-dihydro-4-oxo-3-quinolinecarboxylic acid] | 0.2 (≈ 0.556 µM) | 0.1 (≈ 0.278 µM) | 0.4 (≈ 1.11 µM) | 0.8 (≈ 2.23 µM) | 1.6 (≈ 4.45 µM) | 0.2 (≈ 0.556 µM) | 0.05 (≈ 0.139 µM) | 0.1 (≈ 0.278 µM) | 0.025 (≈ 0.0696 µM) | 0.1 (≈ 0.278 µM) | 72 | 2 | 105 | 2 | 140 (≈ 390 µM) | – | – | –
2 | C[C@H](N)[C@H]1CCN(c2cc3c(cc2F)c(=O)c(C(=O)O)cn3C2CC2)C1 [Example 2, 3S,1S-1-cyclopropyl-6-fluoro-7-[3-(1-aminoethyl)-1-pyrrolidinyl]-1,4-dihydro-4-oxo-3-quinolinecarboxylic acid] | 0.2 (≈ 0.556 µM) | 0.2 (≈ 0.556 µM) | 0.4 (≈ 1.11 µM) | 0.8 (≈ 2.23 µM) | 1.5 (≈ 4.17 µM) | 0.8 (≈ 2.23 µM) | 0.1 (≈ 0.278 µM) | 0.4 (≈ 1.11 µM) | 0.2 (≈ 0.556 µM) | 0.1 (≈ 0.278 µM) | 100 | 4 | > 100 | 12 | 160 (≈ 445 µM) | – | – | –
3 | CN[C@H](C)[C@@H]1CCN(c2c(F)c(N)c3c(=O)c(C(=O)O)cn(C4CC4)c3c2F)C1 [Example 41, 3R,1R-5-amino-1-cyclopropyl-6,8-difluoro-7-[3-(1-N-methylaminoethyl)-1-pyrrolidinyl]-1,4-dihydro-4-oxo-3-quinoline carboxylic acid] | 0.05 (≈ 0.123 µM) | 0.05 (≈ 0.123 µM) | 0.1 (≈ 0.246 µM) | 0.2 (≈ 0.492 µM) | 0.8 (≈ 1.97 µM) | 0.006 (≈ 0.0148 µM) | 0.003 (≈ 0.00738 µM) | 0.013 (≈ 0.032 µM) | 0.006 (≈ 0.0148 µM) | 0.006 (≈ 0.0148 µM) | 3 | 2 | – | – | 33 (≈ 81.2 µM) | 2 | 0.7 | 30
4 | C[C@@H](N)[C@H]1CCN(c2cc3c(cc2F)c(=O)c(C(=O)O)cn3C2CC2)C1 [Example 1, 3S,1R-1-cyclopropyl-6-fluoro-7-[3-(1-aminoethyl)-1-pyrrolidinyl]-1,4-dihydro-4-oxo-3-quinolinecarboxylic acid] | 0.2 (≈ 0.556 µM) | 0.2 (≈ 0.556 µM) | 0.4 (≈ 1.11 µM) | 0.8 (≈ 2.23 µM) | 1.5 (≈ 4.17 µM) | 0.4 (≈ 1.11 µM) | 0.05 (≈ 0.139 µM) | 0.2 (≈ 0.556 µM) | 0.1 (≈ 0.278 µM) | 0.1 (≈ 0.278 µM) | 35 | 2 | > 100 | 3 | 160 (≈ 445 µM) | – | – | –
5 | C[C@H](N)[C@@H]1CCN(c2cc3c(cc2F)c(=O)c(C(=O)O)cn3C2CC2)C1 [Example 3, 3R,1S-1-cyclopropyl-6-fluoro-7-[3-(1-aminoethyl)-1-pyrrolidinyl]-1,4-dihydro-4-oxo-3-quinolinecarboxylic acid] | 0.05 (≈ 0.139 µM) | 0.05 (≈ 0.139 µM) | 0.1 (≈ 0.278 µM) | 0.2 (≈ 0.556 µM) | 0.4 (≈ 1.11 µM) | 0.05 (≈ 0.139 µM) | 0.003 (≈ 0.00835 µM) | 0.025 (≈ 0.0696 µM) | 0.003 (≈ 0.00835 µM) | 0.003 (≈ 0.00835 µM) | 47 | 0.9 | 11 | 0.7 | 42 (≈ 117 µM) | – | – | –
6 | CCN[C@@H](C)[C@@H]1CCN(c2c(F)cc3c(=O)c(C(=O)O)cn(C4CC4)c3c2OC)C1 [Example 18, 3R,1S-1-cyclopropyl-6-fluoro-7-[3-(1-N-ethylaminoethyl)-1-pyrrolidinyl]-8-methoxy-1,4-dihydro-4-3-quinolinecarboxylic acid] | 0.1 (≈ 0.24 µM) | 0.1 (≈ 0.24 µM) | 0.2 (≈ 0.479 µM) | 0.4 (≈ 0.958 µM) | 3.1 (≈ 7.43 µM) | 0.013 (≈ 0.0311 µM) | 0.003 (≈ 0.00719 µM) | 0.025 (≈ 0.0599 µM) | 0.005 (≈ 0.012 µM) | 0.006 (≈ 0.0144 µM) | 5 | 2 | – | – | 110 (≈ 263 µM) | 0.5 | 0.2 | > 100
